From patent US20170009266A1, “PROCESS FOR THE ATTACHMENT OF A GALNAC MOIETY COMPRISING A (HETERO)ARYL GROUP TO A GLCNAC MOIETY, AND PRODUCT OBTAINED THEREBY” (SYNAFFIX B.V., priority 2014, published 2017)

Target: T1, Gal-T1(Y289L,C342T) (Bos taurus, UniProt P08037, C342T/Y289L)
T1 construct: host or cells: E. coli
T1 sequence (P08037 130-402 V158I/P187L/I205M/L206V/Y289L/C342T): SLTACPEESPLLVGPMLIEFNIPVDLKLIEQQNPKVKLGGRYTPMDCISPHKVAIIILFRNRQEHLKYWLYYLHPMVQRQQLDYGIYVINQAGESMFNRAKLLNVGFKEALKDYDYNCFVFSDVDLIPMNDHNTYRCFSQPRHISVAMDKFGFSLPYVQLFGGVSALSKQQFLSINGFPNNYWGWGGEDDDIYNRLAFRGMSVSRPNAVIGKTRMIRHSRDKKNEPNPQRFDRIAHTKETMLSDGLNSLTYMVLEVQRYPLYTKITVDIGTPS
Assay: Glycosyltransfer of UDP-galactosamine derivatives to trimmed antibody with Gal-T1(Y289L,C342T), mass spectral analysis
Assay type: biochemical, bovine
Experimental: A solution of 20 μg (modified) IgG was incubated for 1 hour at 37° C. with Fabricator™ (commercially available from Genovis, Lund, Sweden) (1.25 U/μL) in phosphate-buffered saline (PBS) pH 6.6 in a total volume of 10 μL. Fabricator™-digested samples were washed trice with milliQ using an Amicon Ultra-0.5, Ultracel-10 Membrane (Millipore) resulting in a final sample volume of approximately 40 μL. The Fc/2 fragment was analyzed by electrospray ionization time-of-flight (ESI-TOF) on a JEOL AccuTOF. Deconvoluted spectra were obtained using Magtran software.
Trimmed trastuzumab (10 mg/mL, 3.3 nmol), obtained by Endo S treatment of trastuzumab, was incubated with nicotinic acid variant of UDP-galactosamine (21, 2 mM) and Gal-T1(Y289L,C342T) (0.5 mg/mL, 3 μL/4 mg/ml) in 10 mM MnCl2 and 25 mM Tris-HCl pH 7.5 at 30° C. overnight. Mass spectral analysis of the sample after treatment with Fabricator™ (commercially available from Genovis) indicated the formation of the correct structure of CH2-CH3 fragment of 28 (24404 Da, expected mass 24405 Da, approximately 35% conversion), resulting from galactosamide nicotinic acid transfer to core GlcNAc(Fuc) substituted trastuzumab heavy chain.
A pET22b vector containing the sequence encoding residues 130-402 of bovine Gal-T1 with the Y289L and C342T mutations between the NdeI-BamHI sites was obtained from Genscript. Using this plasmid Gal-T1(Y289L,C342T) was expressed, isolated and refolded from inclusion bodies according to the reported procedure by Qasba et al. (Prot. Expr. Pur. 2003, 30, 219-76229, incorporated by reference herein). After refolding, the solution was dialyzed against 20 mM Tris pH 7.5 and the insoluble protein was removed by centrifugation (10 minutes 10.000 g). The soluble Gal-T1(Y289L,C342T), represented by SEQ ID NO: 25, was purified and concentrated using a cation exchange column (Source 15S HR16/10 column, GE Healthcare). After elution with 20 mM Tris-HCl pH 7.5, 1 M NaCl, the protein was dialyzed against 20 mM Tris-HCl pH 7.5. This procedure yielded 90 mg inclusion bodies from 0.5 L culture, which after refolding gave 3.9 mg active soluble protein.
Trimmed trastuzumab (10 mg/mL, 66 μM), obtained by Endo S treatment of trastuzumab, was incubated with the 4-azido-2,3,5,6-tetrafluorobenzoyl derivative of UDP-galactosamine (23b, 1 mM) and Gal-T1(Y289L,C342T) (1.0 mg/mL) in 10 mM MnCl2 and 25 mM Tris-HCl pH 8.0 at 30° C. overnight. Mass spectral analysis of the Fabricator™-digested sample indicated a partial conversion of core GlcNac(Fuc)-substituted trastuzumab (observed mass 24139 Da, calculated mass of 24136 Da) into the product 30b (observed mass 24518 Da, calculated mass of 24514 Da, approximately 10% of total Fc/2 fragment), resulting from transfer of 23b to core GlcNAc(Fuc)-substituted trastuzumab.
Trimmed cetuximab (5 mg/mL, 33 μM), obtained by Endo S treatment of cetuximab, was incubated with the 4-azido-2,3,5,6-tetrafluorobenzoyl derivative of UDP-galactosamine (23b, 2 mM) and Gal-T1(Y289L,C342T) (1.0 mg/mL) in 25 mM Tris-HCL pH 7.5 and 150 mM NaCl at 30° C. overnight. Mass spectral analysis of the Fabricator™-digested sample indicated a partial conversion of the core GlcNac(Fuc)-substituted adalimumab (observed mass 24138 Da, calculated mass of 24136 Da) into product 30b (observed mass 24518 Da, calculated mass of 24514 Da, approximately 20% of total Fc/2 fragment), resulting from transfer of 23b to core GlcNAc(Fuc)-substituted adalimumab.
Trimmed bevacizumab (5 mg/mL, 33 μM), obtained by Endo S treatment of bevacizumab, was incubated with the 4-azido-2,3,5,6-tetrafluorobenzoyl derivative of UDP-galactosamine (23b, 2 mM) and Gal-T1(Y289L,C342T) (1.0 mg/mL) in 25 mM Tris-HCL pH 7.5 and 150 mM NaCl at 30° C. overnight. […]

O=C(NC1C(OP(=O)(O)OP(=O)(O)OCC2OC(n3ccc(=O)[nH]c3=O)C(O)C2O)OC(CO)C(O)C1O)c1cccnc1 (stereo not shown) [Compound 21, 3-pyridylcarbonyl Derivative of UDP-GalNH2]
conversion (trimmed trastuzumab 10 mg/mL, UDP derivative 2 mM, enzyme 0.5 mg/mL (E. coli), pH 7.5, 30° C. overnight, Fabricator-digested): approximately 35%

[N-]=[N+]=Nc1c(F)c(F)c(C(=O)N[C@H]2[C@@H](OP(=O)(O)OP(=O)(O)OC[C@H]3O[C@@H](n4ccc(=O)[nH]c4=O)[C@H](O)[C@@H]3O)O[C@H](CO)[C@H](O)[C@@H]2O)c(F)c1F [Compound 23b, 4-azido-2,3,5,6-tetrafluorobenzoyl Derivative of UDP-GalNH2]
product, % of total Fc/2 fragment (trimmed adalimumab 5 mg/mL, UDP derivative 2 mM, enzyme 1.0 mg/mL, pH 7.5, 30° C. overnight): approximately 30%
product, % of total Fc/2 fragment (trimmed bevacizumab 5 mg/mL, UDP derivative 2 mM, enzyme 1.0 mg/mL, pH 7.5, 30° C. overnight): approximately 30%
product, % of total Fc/2 fragment (trimmed cetuximab 5 mg/mL, UDP derivative 2 mM, enzyme 1.0 mg/mL, pH 7.5, 30° C. overnight): approximately 20%
product, % of total Fc/2 fragment (trimmed trastuzumab 10 mg/mL, UDP derivative 1 mM, enzyme 1.0 mg/mL, pH 8.0, 30° C. overnight): approximately 10%

[N-]=[N+]=Nc1c(F)cc(C(=O)N[C@H]2[C@@H](OP(=O)(O)OP(=O)(O)OC[C@H]3O[C@@H](n4ccc(=O)[nH]c4=O)[C@H](O)[C@@H]3O)O[C@H](CO)[C@H](O)[C@@H]2O)cc1F [Compound 23, 4-azido-3,5-difluorobenzoyl Derivative of UDP-GalNH2]
conversion of core GlcNAc(Fuc)-substituted trastuzumab into product (trimmed trastuzumab 10 mg/mL, UDP derivative 1 mM, enzyme 1.0 mg/mL, pH 8.0, 30° C. overnight, reduced sample): complete conversion

[N-]=[N+]=Nc1ccc(C(=O)NC2C(OP(=O)(O)OP(=O)(O)OCC3OC(n4ccc(=O)[nH]c4=O)C(O)C3O)OC(CO)C(O)C2O)cn1 (stereo not shown) [Compound 21b, 6-azidonicotinic Acid Derivative of UDP-GalNH2]
product, % of total Fc/2 fragment (trimmed trastuzumab 10 mg/mL, UDP derivative 5 mM, enzyme 1.0 mg/mL, pH 7.5, 30° C. overnight): approximately 95%
